These results are taken from US11028084B2, “Selective inhibitors of gentotoxic steress-induced IKK/NF-κB pathways” (Max-Delbrück-Centrum für Molekulare Medizin in der …, priority 2016, dated 2021).

Assay type in all cases: cell-based, human
The subject of test [1] is genotoxic stress-initiated NF-κB signaling cascade. Kind of test: Time course of IκBα, p65, IKK and TAK1 phosphorylation after γ-IR, WB, U2OS cells. The source says: FIG. 6: (A) U2OS cells were pre-treated with DMSO or MW01 and irradiated. Stimulation of cell with IL-1β served as a positive control for IκBα and p65 phosphorylation. Cells were lysed at indicated time points and used for WB analyses. (B,C) Similar experimental setup as in (A). (D) Experiment as in (A-C), but with other time points analysed and performed with HepG2 cells. PARP1 and LDH serve as loading controls.

Test [2] concerns ATM cytoplasmic translocation. The test can be described thus: ATM relocalisation upon DNA DSB, immunofluorescence, U2OS cells. Here is the method: FIG. 7: Cytoplasmic accumulation of ATM. (A) Fractionation experiment with separated nuclear extracts (NE) and cytoplasmic extracts (CE). PARP1 and LDH staining served as loading and fractionation controls. Cells were pre-treated with DMSO or MW01 (5 μM) prior to irradiation and cell harvesting at indicated times. NE and CE were subjected to SDS-PAGE/WB procedure. (B) U2OS cells were seeded on cover slips 2 days before treatment. The cells were pre-treated with solvent DMSO alone or with MW01 prior to irradiation, cell fixation and subsequent immunofluorescence staining.
For immunofluorescence staining 0.95×10^5 cells were seeded in 6 well plates onto autoclaved cover slips. Cellular confluency dictated to beginning of the experiment (2-3 days from seeding). After conduction of experiments cells were washed with PBS and fixed with 4% PFA/double-distilled H2O (ddH2O) for 10 min at RT. Following two additional washing steps cells were incubated with a solution containing 0.12% glycine/0.2% saponin in PBS for 10 min and then blocked with a solution containing 10% FCS/0.2% saponin in PBS for 1 h. Primary antibody incubation was performed overnight at 4° C. (1:500 diluted in 0.2% saponin in PBS). The next day, cover slips were washed five times with a solution containing 0.2% saponin in PBS. […]

Test [3] relates to NF-κB target genes NFKBIA, TNFAIP3, CXCL8. The test can be described thus: qRT-PCR of NF-κB target genes after irradiation, U2OS cells. Particulars: 90 min after irradiation. Here is the method: FIG. 14: (A) U2OS cells were pre-treated with different concentrations of olaparib prior to co-treatment with etoposide. Whole cell lysis was performed after 90 min and cleared lysates were used for WB with indicated antibodies. (B) U2OS cells were pre-treated with DMSO, olaparib or the ATM inhibitor Ku55933 and co-treated with etoposide. Cells were harvested after 45 min and subjected to SDS-PAGE/WB. Membranes were stained with the indicated antibodies. The experiment of (B) was performed simultaneously to the experiments of (A) and (E) to control functionality of olaparib in inhibiting PAR chain formation. (C) Densitometrical analyses of (A) and two further independent experiments done as shown in (A). (D) U2OS cells were pre-treated with the substances as indicated prior to irradiation. After 90 min mRNA was isolated, transcribed into cDNA and was used for expression analyses of the indicated genes using quantitative real-time PCR (qRT-PCR). (E) HepG2 cells were pre-treated with the PARP inhibitors olaparib, 3-AB and EB-47 prior to γ-irradiation. Cells were harvested after 15 and 90 min and subjected to SDS-PAGE/WB. Membranes were stained with the indicated antibodies. Error bars equal SEM.
To quantitate specific mRNA (messenger RNA) species in samples RNA was isolated, RNA concentration was measured and mRNA was transcribed into cDNA. The amount of mRNA transcripts of certain genes within a sample was quantified by employing gene specific primers and using a C-1000 Thermal cycler (Biorad). The expression of genes of interest was normalised against two or three reference genes (HRPT1, RPL_13a and B2M) using the CFX manager software. The fold induction of mRNA was calculated over untreated sample levels by the ΔΔ-Ct method.

The test system of another test is HEK293 cells. Kind of test: Crystal violet staining (cell number), HEK293 cells. Here is the method: FIG. 16: (A) U2OS cells were pre-treated with DMSO or MW01 and irradiated. Cells were lysed 8 h post γ-IR and were used for western blotting and immunochemical staining. (B) HEK293 cells were pre-treated with DMSO or MW01 and irradiated. After 48 h cells were fixed and stained with crystal violet. Dissolved crystal violet was used for absorbance measurement in a visible light spectrophotometer at a wavelength of 595 nm. (C) HEK293 cells were pre-treated with DMSO or MW01 and irradiated. The percentage of viable cells within the population was calculated by exclusion of annexin V and propidium-iodide positive cells measured by flow cytometry. (D) MEF cells were pre-treated with DMSO or MW01 and irradiated. Cells were used for annexin V staining 24 h and 48 after γ-IR. Percentage of annexin V positive cell population was analysed using a flow cytometer. (E) Experiment done as shown in (D) but with HT1080 cells processed 8 h after irradiation. Statistical significance was calculated using students t-test.
For crystal violet staining, cells were washed with ice-cold PBS and fixed with 4% PFA in PBS for 15 min under a fume hood. After washing with PBS, cells were stained with 0.1% crystal violet for 20 min at RT. […] Then, 0.25 ml of stain was diluted 1:4 in ddH2O and absorbance was measured at 595 nm using a spectrophotometer against 10% acetic acid as blank.

As for `COc1ccc2c(c1OC)c(=O)n1c3ccc(O)cc3c3ccnc2c31` [MW01, 12-hydroxy-6,7-dimethoxy-8H-benzo[c]indolo[3,2,1-ij][1,5]naphthyridin-8-one], in test [1] (45 and 60 min following irradiation), the TAK1 phosphorylation result was “strongly inhibited”. For the same compound, in test [1] (45 min and 60 min after γ-IR), the IκBα phosphorylation result was “complete inhibition” and the “p65 S536 phosphorylation” value is recorded as “inhibited”. For the same compound, the IKK phosphorylation entry in test [1] (90 min after irradiation) is “abolished”. In addition, in test [2], the “ATM localisation after irradiation (IF)” value is “predominantly localized within the nucleus”. Moreover, in test [3], the “NFKBIA, TNFAIP3 and CXCL8 mRNA induction upon irradiation” value is listed as “complete inhibition”. In addition, the “cell number compared to the DMSO/IR control” value with HEK293 cells (HEK293, 48 h after irradiation) is “significant effect on further reduction in cell number”. The “cell number in comparison to DMSO treated samples” value with HEK293 cells (HEK293, not irradiated) is “reduced the cell number”.
